{"source": "paper PMC10412585", "about": "(Nature Communications, 2023)", "key": {"[1]": {"system": "NKG2A+/NKG2C- NK cells", "test": "NK cell activation assay with peptide-pulsed K562/HLA-E cells, NKG2A+/NKG2C- NK cells", "assay_type": "cell-based, human", "details": "K562/HLA-E target cells, 300 µM peptide ([…] µM BFAR263-271), E:T 2:1, 6 h; degranulation (CD107a), IFN-γ, TNF, CCL3; flow cytometry"}, "[2]": {"target": "T1, CD94/NKG2A (Homo sapiens, UniProt P26715+Q13241)", "T1 construct": "The C-terminus of human NKG2A or NKG2C ectodomain was connected via a GGSGGS linker to human CD94 ectodomain; AviTag biotinylation tag (C); poly-histidine tag (C); made in house; host or cells: baculovirus, High Five (Hi5) insect cells", "T1 sequence (Q13241 whole entry, looked up, the tested form may be a part)": "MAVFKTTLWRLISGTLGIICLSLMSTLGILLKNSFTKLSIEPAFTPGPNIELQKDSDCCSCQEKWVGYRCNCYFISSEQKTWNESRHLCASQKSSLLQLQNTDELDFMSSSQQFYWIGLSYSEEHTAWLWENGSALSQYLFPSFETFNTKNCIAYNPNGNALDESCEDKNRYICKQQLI", "T1 sequence (P26715 whole entry, looked up, the tested form may be a part)": "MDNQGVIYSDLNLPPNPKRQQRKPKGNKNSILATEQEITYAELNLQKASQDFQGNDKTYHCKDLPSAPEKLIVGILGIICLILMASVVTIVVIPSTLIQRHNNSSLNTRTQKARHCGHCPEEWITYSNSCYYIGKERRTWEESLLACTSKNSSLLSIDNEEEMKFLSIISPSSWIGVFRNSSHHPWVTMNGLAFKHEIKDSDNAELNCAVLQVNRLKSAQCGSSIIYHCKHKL", "test": "Steady-state SPR of peptide-HLA-E single chain trimers with CD94/NKG2A", "assay_type": "binding", "details": "SPR with CD94/NKG2A and CD94/NKG2C, Fig. 5B; taken as lower stability of the peptide-HLA-E complex", "procedure": "Specifically, we measured CD94/NKG2A and CD94/NKG2C affinity for HLA-E complexed with three sets of peptides. […] Third, we included […] peptide as a positive control.\nSteady-state surface plasmon resonance experiments were performed with a Biacore T200 instrument. CD94/NKG2x in HBS-EP+ buffer was injected as analyte in a concentration range of 0.1 μM to 102.4 μM and flow rate of 10 μL/min at 25 °C. Data was fit with Prism 9.4 (GraphPad Software Inc; San Diego CA) to a “one site, specific binding” model. Sensorgrams are included in Supplemental Fig. 13.\nFor investigating WN peptides, biotinylated pMHC was immobilized at approximately 400 Response Units (RU) on a Series S SA sensor chip (Cytiva). […] CD94/NKG2A was injected followed by CD94/NKG2C.\nFor investigating human-derived peptides, Series S CM5 chips (Cytiva) were coupled to neutravidin and utilized. Biotinylated pMHC was immobilized at approximately 400 RU. On one chip, […] CD94/NKG2A was injected followed by CD94/NKG2C. On a second chip, PISD55-63 HLA-E SCT, AKAP6_388-396 HLA-E SCT, GTF3C5_293-301 HLA-E SCT, and reference HLA-DR401 were immobilized. CD94/NKG2C was injected followed by CD94/NKG2A. Rmax, fit values were calculated by Biacore software. Rmax, theoretical values were calculated using the analyte/ligand mass ratio (0.66) multiplied by the amount of ligand coupled to the chip."}}}
{"sequence": "VNPGRSLFL [BFAR263-271, human peptide from Bifunctional apoptosis regulator]", "values": [{"measurement": "inhibitory effects on NKG2A+ cells", "setting": "[1]", "value": "minimal inhibitory effects"}, {"measurement": "maximal response units (Rmax) compared to theoretical maximum", "setting": "[2]", "value": "lower maximal values compared to the theoretical maximum"}]}
